The test system of data set [1] is KRAS^G12V mutated NCI-H441 cells. Briefly: Clonogenic assay (colony formation), NCI-H441. The format is cell-based, human. Conditions: for colony formation (in words): NCI-H441, 8000 cells per well, 14 days, crystal violet, various concentrations. The method, then: (§1) Cells and Reagents: The cell lines were obtained from ATCC (SW620 #CCL-227, A549 #CCL-185 and NCI-H441 #HTB-174). The cell lines, LS180 (ECACC #87021202) and Gp2D (ECACC #95090714). The cell line, CAL 27 was cultured in DMEM (Gibco #). SCC-4, SCC-15, SCC-25, SCC-9 cell lines were cultured in a 1:1 mixture of DMEM and Ham's F12 medium containing 1.2 g/L sodium bicarbonate, 2.5 mM L-glutamine, 15 mM HEPES and 0.5 mM sodium pyruvate supplemented with 400 ng/ml hydrocortisone, 90%; fetal bovine serum, 10% (Hyclone #SH-30071.03) and Penicillin/Streptomycin (Thermo Fisher #15070-063). The cells were maintained at 37° C./5% CO2.
(§2) Clonogenic assay: The cells were plated onto 6-well plates in 2 ml cell culture medium. The cells were incubated overnight and treated with various concentration of the compound of Formula I and Palbociclib. After 7 days incubation, the medium was replaced with fresh medium, cells were treated again with same concentration of the compound of Formula I and Palbociclib and incubated for additional 7 days. After 14 days of total incubation, the cells were washed with PBS twice and fixed 30 mins with 4% formaldehyde. The cells were washed twice with PBS and incubated with 0.1% crystal violet for 60 mins. After the crystal violet staining, the cells were washed five times with water and let it dry at room temperature. After the plates were dried, the crystal staining was de-stained with 1 ml of 10% acetic acid and absorbance was measured at 560 nm.
(§3) Cell lines from each of KRAS^G12D (LS513 and Gp2D), KRAS^G12S (A549) and KRAS^G12V (NCI-H441 and SW620) mutations were split onto 6-well plates in 2 ml cell culture medium. The cells were incubated overnight and treated with various concentration of the compound of Formula I and Palbociclib and assayed using the Clonogenic Assay protocol described above.
(§4) The NCI-H441 and SW620 cells were split onto 6 well plates (8000 and 4000 calls per well respectively). After overnight incubation, the cells were treated with the compound of Formula I alone and treated in combination with palbociclib and colony formation was determined as mentioned in method. […] (FIGS. 2A&3A). […] There was a pronounced inhibition of colony formation (about 80%) observed with combination of the compound of Formula I and palbociclib treatment. […] There was a pronounced inhibition of colony formation (about 60%) observed with combination of the compound of Formula I and palbociclib treatment.

Data set [2] deals with KRAS^G12S mutated A549 cells. The experiment in a line: Clonogenic assay (colony formation), A549. It counts as cell-based, human. Conditions: for colony formation (in words): A549, 2000 cells per well, 14 days, crystal violet, various concentrations; for reduction of colony formation: A549, quantification FIG. 1B, each agent alone or combination, concentrations not given. The method, then: as §1, §2, §3
The A549 cells were split onto 6 well plates (2000 cells per well). After overnight incubation, the cells were treated with the compound of Formula I alone and treated in combination with palbociclib and colony formation was determined as mentioned in method. […] (FIG. 1A).

Data set [3] concerns KRAS^G12V mutated SW620 cells. The experiment in a line: Clonogenic assay (colony formation), SW620. It counts as cell-based. Conditions: for colony formation (in words): SW620, 4000 cells per well, 14 days, crystal violet, various concentrations. The method, then:
as §1, §2, §3, §4

In data set [4] the test system is KRAS^G12S mutant NSCLC xenograft model A549. The experiment in a line: Antitumor efficacy in A549 xenograft mouse model. It counts as in vivo, Female Balb/c nude mice. Conditions: 28 days. The method, then: Reagents: The vehicle/control article, 100 mM acetic acid in deionized water, with pH adjustment to 4.8-5.0, was prepared and stored under ambient conditions throughout the 28-day administration in mice. The test article compound of Formula I was freshly prepared in vehicle of 100 mM acetic buffer weekly and stored under ambient conditions. The combination agent palbociclib was freshly prepared in vehicle of 50 mM Sodium Lactate Buffer, pH 3.8-4.0 weekly and stored at 2-8° C.
Animals: Female Balb/c nude mice were purchased from the Beijing Vital River Laboratory Animal Technology Co., Ltd. Mice were hosted at special pathogen-free (SPF) environment of vivarium facility and acclimated to their new environment for at least 3 days prior to initiation of any experiments. Mice were between 6-8 weeks of age at the time of implantation.
Preparation of xenograft model: A549 was a human lung cancer cell line that harbored a KRASG12S mutation. The A549 cell line was purchased from the American Type Culture Collection (ATCC® CCL-185™). A549 cells were cultured in medium containing RPMI1640 plus 10% Fetal Bovine Serum (FBS) at 37° C. in an atmosphere of 5% CO2 in air. The medium was renewed every 2 to 3 days and tumor cells were routinely sub-cultured at a confluence of 80-90% by trypsin-EDTA. The cells growing in an exponential growth phase were harvested and counted for inoculation.
A549 tumor cells were implanted into mice subcutaneously. Briefly, 200 μL cell suspensions containing 5×10^6 tumor cells mixed with 50% Matrigel were subcutaneously implanted into the right flank of mouse using a syringe. Animal health and tumor growth were monitored daily. Tumor volume was measured twice a week by caliper when tumors were palpable and measurable. When tumor volumes reached a mean of 200 mm^3 (range of 152-259 mm^3), tumor-bearing mice were randomized into different groups with 8 mice in each group. The randomization date was denoted as treatment day 0.
Treatment: Treatment started on the day of randomization. The treatment start day was denoted as treatment day 0. Mice were dosed by oral administration of vehicle control solution, the compound of Formula I at 10 mg/kg/dose BID, the compound of Formula I at 30 mg/kg QD, or palbociclib at 25 mg/kg QD monotherapy treatment groups. Two additional groups received combination treatment of the compound of Formula I and palbociclib, one dosing the compound of Formula I at 10 mg/kg/dose BID with palbociclib at 25 mg/kg QD and the other dosing the compound of Formula I at 30 mg/kg QD with palbociclib at 25 mg/kg QD. The dosing volume for each compound was 5 mL/kg and interval of BID regimen was 8 hours. Palbociclib was dosed at one-hour post the compound of Formula I QD or first BID dose in combination groups. […] Per this practice, mice in the compound of Formula I at 10 mg/kg/dose BID monotherapy group and in the compound of Formula I at 10 mg/kg/dose BID with palbociclib at 25 mg/kg QD combination group were supplied with DietGel food starting on treatment day 20 and continuing through the remaining study period. Mice in the compound of Formula I at 30 mg/kg QD monotherapy group were supplied with DietGel food starting on treatment day 17 and continuing through the remaining study period. The study was terminated on treatment day 28 as being defined in the study protocol.
Measurements and calculations: Conditions of animal health and clinical signs of toxicity were monitored daily. Subcutaneous tumor volumes and mouse body weights were measured twice a week by caliper and balance, respectively. Tumor volume, percent of tumor growth inhibition (% TGI), percent of tumor regression, percent of body weight change (% BWC), and treatment related body weight loss (% trBWL) were calculated based on following formulas: […]
Percent of tumor growth inhibition (% TGI) • vii.
[formula] • viii. TVTi was the group mean tumor volume (TV) of treatment group at last treatment day • ix. […]

A short description of data set [5]: Body weight change and tolerability in A549 xenograft study. Conditions: for treatment related body weight loss (trBWL) category: palbociclib 25 mg/kg QD, Formula I 10 mg/kg BID and 30 mg/kg QD, both combinations with palbociclib 25 mg/kg QD. The format is in vivo, Female Balb/c nude mice. The procedure: Treatment: Treatment started on the day of randomization. The treatment start day was denoted as treatment day 0. Mice were dosed by oral administration of vehicle control solution, the compound of Formula I at 10 mg/kg/dose BID, the compound of Formula I at 30 mg/kg QD, or palbociclib at 25 mg/kg QD monotherapy treatment groups. Two additional groups received combination treatment of the compound of Formula I and palbociclib, one dosing the compound of Formula I at 10 mg/kg/dose BID with palbociclib at 25 mg/kg QD and the other dosing the compound of Formula I at 30 mg/kg QD with palbociclib at 25 mg/kg QD. The dosing volume for each compound was 5 mL/kg and interval of BID regimen was 8 hours. Palbociclib was dosed at one-hour post the compound of Formula I QD or first BID dose in combination groups. […] The study was terminated on treatment day 28 as being defined in the study protocol.
Measurements and calculations: Conditions of animal health and clinical signs of toxicity were monitored daily. Subcutaneous tumor volumes and mouse body weights were measured twice a week by caliper and balance, respectively. Tumor volume, percent of tumor growth inhibition (% TGI), percent of tumor regression, percent of body weight change (% BWC), and treatment related body weight loss (% trBWL) were calculated based on following formulas:
[formula] [formula] [formula] • i. BWdx was body weight group mean at treatment day x • ii. BWd0 was body weight group mean at treatment day 0
Percentage of treatment related body weight loss at treatment day x (% trBWLdx) was calculated based on the following: • iii. If % BWC in the treatment group was positive at treatment day x: % trBWLdx=0% • iv. If % BWC was negative in both the control and treatment groups at treatment day • x:
Treatment related body weight loss (trBWL) was categorized based on the following criteria: x≤5% was no loss, 5%<x≤10% was mild loss, 10%<x≤20% was moderate loss and x>20% was severe loss.

Data set [6] concerns KRAS^G12D mutated Gp2D cells. Briefly: Clonogenic assay (colony formation), Gp2D. It counts as cell-based, human. Conditions: for colony formation (in words): 8000 cells per well, 14 days, crystal violet, various concentrations. The method, then: as §1, §2, §3
(§5) The LS-180 and Gp2D cells were split onto 6 well plates (4000 and 8000 calls per well respectively). After overnight incubation, the cells were treated with the compound of Formula I alone and treated in combination with palbociclib and colony formation was determined as mentioned in method. […] (FIGS. 4A&5A). […] There was a pronounced inhibition of colony formation (about 50%) observed with combination of the compound of Formula I and palbocilib treatment. […] There was a pronounced inhibition of colony formation (about 50%) observed with combination of the compound of Formula I and palbocilib treatment.

Data set [7] deals with KRAS^G12D mutated LS-180 cells. The experiment in a line: Clonogenic assay (colony formation), LS-180. The format is cell-based. To be noted: for colony formation (in words): LS-180, 4000 cells per well, 14 days, crystal violet, various concentrations. The method, then:
as §1, §2, §3, §5

As for `CC(=O)c1c(C)c2cnc(Nc3ccc(N4CCNCC4)cn3)nc2n(C2CCCC2)c1=O` [Palbociclib, reference compound], the inhibition at 0.1 µM is approximately 60% in data set [1] (Homo sapiens, NCI-H441, palbociclib 100 nM alone, FIG. 2B) and approximately 40% in data set [3] (Homo sapiens, SW-620, SW620, palbociclib 100 nM alone, FIG. 3B). For the same compound, the “colony formation (in words)” value in data set [1], in data set [2], in data set [3], in data set [6] and in data set [7] was “inhibition of colony formation dose dependently” each time. For the same compound, in data set [2], the “reduction of colony formation” value is “about 10%”. The “% TGI (last treatment day)” value in data set [4] (palbociclib 25 mg/kg QD oral) turned out to be 15%. Further, in data set [4] (palbociclib 25 mg/kg QD oral), the “% Tumor regression (last treatment day)” value was determined as 0%. Besides, the “maximum trBWL” value in data set [5] (28 days oral, palbociclib 25 mg/kg QD monotherapy) was found to be 400. In addition, the “treatment related body weight loss (trBWL) category” value in data set [5] (28 days oral) was “no trBWL”. The inhibition at 0.25 µM is approximately 40% in data set [6] (Homo sapiens, palbociclib 250 nM alone, FIG. 5B) and approximately 40% in data set [7] (Homo sapiens, LS180, LS-180, palbociclib 250 nM alone, FIG. 4B).

For the compound `COCOC[C@H]1C[C@H]2COc3c(Sc4cnc(N5CCC6(CC5)CO[C@@H](C)[C@H]6N)c(CO)n4)ccnc3N2C1` [compound of Formula I, (3-((3S,4S)-4-amino-3-methyl-2-oxa-8-azaspiro[4.5]decan-8-yl)-6-(((6aS,8S)-8-((methoxymethoxy)methyl)-6a,7,8,9-tetrahydro-6H-pyrido[3,2-b]pyrrolo[1,2-d] [1,4]oxazin-4-yl)thio)pyrazin-2-yl)methanol], the “colony formation (in words)” value in data set [1], in data set [2], in data set [3], in data set [6] and in data set [7] was “inhibited the colony formation minimally” throughout. Further, the “colony formation on increasing the concentration of Formula I” value is listed as “robust inhibition of colony formation” in data set [1] (NCI-H441, FIG. 2B); “robust inhibition of colony formation” in data set [3] (SW620, single agent and combination, FIG. 3B). The “colony formation (treatment showed about x% of colony formation)” value is listed as “about 40%” in data set [1] (NCI-H441, Formula I 250 nM alone, FIG. 2B); “about 10%” in data set [3] (SW620, Formula I 250 nM alone, FIG. 3B); “about 20%” in data set [6] (Formula I 250 nM alone, FIG. 5B); “about 10%” in data set [7] (LS-180, Formula I 250 nM alone, FIG. 4B). Also, in data set [2], the “reduction of colony formation” value was “about 10%”. The “% TGI (last treatment day)” value was found to be 52% in data set [4] (Formula I 10 mg/kg BID oral) and 70% in data set [4] (Formula I 30 mg/kg QD oral). The “% Tumor regression (last treatment day)” value in data set [4] (Formula I 10 mg/kg BID oral) and in data set [4] (Formula I 30 mg/kg QD oral) was 0% in each case. The “clinical signs of toxicity or mortality” value in data set [5] (28-day treatment period, both Formula I monotherapy groups and both combination groups) is listed as “no clinical signs of toxicity or mortality were observed”. Besides, the “treatment related body weight loss (trBWL) category” value in data set [5] (28 days oral) is given as “mild trBWL”.

The record behind these values is US20240293422A1, “SHP2 AND CDK4/6 INHIBITORS COMBINATION THERAPIES FOR THE TREATMENT OF CANCER” (Erasca, Inc., priority 2021, published 2024).
